# In patent publication US6407306B1, “Process for extracting carotenes from carotene-containing materials” (priority 2000, dated 2002):
# What was measured:
# [1] = Solubility of extractant in dense carbon dioxide; format: physicochemical; conditions: 70° C. and 120 bar
# [2] = cited from earlier work; for solubility relative to β-carotene: qualitative comparison
smiles,measurement,setting,value
O=CN1CCOCC1 [4-formylmorpholine],solubility in carbon dioxide,[1],9 wt. %
CC1=CCCC(C)(C)C1/C=C/C(C)=C/C=C/C(C)=C/C=C/C=C(C)/C=C/C=C(C)/C=C/C1=C(C)CCCC1(C)C (stereo not drawn) [α-Carotene],solubility relative to β-carotene,[2],more readily soluble than β-carotene
CC1=C(/C=C/C(C)=C/C=C/C(C)=C/C=C/C=C(C)/C=C/C=C(C)/C=C/C2=C(C)CCCC2(C)C)C(C)(C)CCC1 [β-Carotene],solubility in benzene,"[2]; benzene, 19° C.",0.35 grams per 100 cm^3 of solvent
same,solubility in carbon disulfide,"[2]; carbon disulfide, 19° C.",5.5 grams per 100 cm^3 of solvent
same,solubility in ethanol,"[2]; ethanol, 19° C.",0.008 grams per 100 cm^3 of solvent
same,solubility in petroleum ether,"[2]; petroleum ether, 19° C.",0.1 grams per 100 cm^3 of solvent
CC(C)=CCC/C(C)=C/C=C/C(C)=C/C=C/C(C)=C/C=C/C=C(C)/C=C/C=C(C)/C=C/C1=C(C)CCCC1(C)C [γ-Carotene],solubility relative to β-carotene,[2],more readily soluble than β-carotene
